Measured values published in BigSolDB 2.1.

CCOC(=O)OC1=C(c2cc(C)ccc2C)C(=O)NC12CCC(OC)CC2 (stereo unspecified)
solubility (mole fraction)
Conditions	278.15 K	283.15 K	288.15 K	293.15 K	298.15 K	303.15 K	308.15 K	313.15 K	318.15 K
in acetone	0.012	0.0151	0.0183	0.0221	0.0267	0.0323	0.0392	0.0472	0.0571
in ethanol	0.00319	0.00386	0.00504	0.00624	0.008	0.0103	0.0132	0.0169	0.0219
in isopropanol	0.00177	0.00232	0.0031	0.00415	0.00543	0.00711	0.00939	0.0125	0.0165
in methanol	0.00534	0.00669	0.00803	0.01	0.0127	0.0159	0.0202	0.0257	0.0321
